Data: article PMC12391934, “Palladium-Catalyzed C–H Arylation of Quinoidal Scaffolds Through Homogeneous and Heterogeneous Pathways: Advancing Toward Trypanocidal Prototypes” (ACS Omega, 2025)

Tests used:
Format in all cases: cell-based
in vitro = assay: in vitro
[1] = tested on: trypomastigote forms of Trypanosoma cruzi (Y strain); assay: Trypanocidal assay, bloodstream trypomastigotes, 0% of blood at 37 °C; conditions: 24 h, concentration giving 50% lysis of the parasites, mean ± SD of at least three experiments
Description: 0% of blood at 37 °C: The experiments were performed with the Y strain of T. cruzi.^11 Stock solutions of the compounds were prepared in dimethylsulfoxide (DMSO), with the final concentration of the latter in the experiments never exceeding 0.1%. […] Bloodstream trypomastigotes were obtained from infected Albino Swiss mice at the peak of parasitemia by differential centrifugation. The parasites were resuspended to a concentration of 10 × 10^6 cells/mL in DMES medium. This suspension (100 µL) was added to the same volume of each of the compounds, which had been previously prepared at twice the desired final concentrations. The incubation was performed in 96-well microplates (Nunc Inc., Rochester, USA) at 37 °C for 24 h. Benznidazole (Lafepe, Brazil), the standard drug for treatment of chagasic patients, was used as control.

[2] = tested on: trypomastigote forms of Trypanosoma cruzi (Y strain); assay: Trypanocidal assay, bloodstream trypomastigotes, 5% of blood at 4 °C; conditions: 24 h, concentration giving 50% lysis of the parasites, mean ± SD of at least three experiments
Description: 5% of blood at 4 °C: For all the experiments, stock solutions of the compounds were prepared in dimethyl sulfoxide, with the final concentration of the solvent never exceeding 0.5%, concentration known to exert no toxicity to the parasite or host cells. Bloodstream trypomastigotes of Y strain were obtained from infected Swiss Webster mice at the peak of parasitemia by differential centrifugation process. The parasites (5 × 10^6 parasites per mL) plus 5% of blood were incubated at 4 °C for 24 h in 5% CO2 atmosphere in absence or presence of the compounds. […] At least three independent experiments were performed, and the mean and standard deviation were calculated. The standard drug Bz was used as control.

Row | SMILES | CC50 at 24 h (in vitro) | IC50 [1] | IC50 [2]
1 | O=C1C(c2ccccc2)=CC(=O)c2c(O)cccc21 [3m] | < 3.9 µM | 0.34 ± 0.03 µM | 12.7 ± 0.1 µM
2 | O=C1C=C(c2ccccc2)C(=O)c2ccccc21 [3d] | 9.4 ± 2.2 µM | 2.11 ± 0.1 µM | 25.2 ± 2.8 µM
3 | COc1ccc(C2=CC(=O)c3ccccc3C2=O)c([N+](=O)[O-])c1 [3j] |  |  | 86.1 ± 7.2 µM
4 | Cc1cc(C)cc(C2=CC(=O)c3cc4ccccc4cc3C2=O)c1 [3p] |  |  | > 250 µM
5 | Cc1cccc(C2=CC(=O)c3ccccc3C2=O)c1 [3b] | 14.3 ± 0.5 µM |  | 38.4 ± 1.3 µM
6 | Cc1ccc(C2=CC(=O)c3c(O)cccc3C2=O)cc1 [3l] | 4.8 ± 0.9 µM | 0.31 ± 0.04 µM | 14.4 ± 2.1 µM
7 | Cc1ccc(C2=CC(=O)c3ccccc3C2=O)cc1 [3a] | 24.6 ± 3.2 µM |  | 36.3 ± 2.9 µM
8 | Cc1ccc(C2=CC(=O)C=C(c3ccc(C)cc3)C2=O)cc1 [3v] |  |  | 233 ± 12.4 µM
9 | O=C1C=C(c2ccccc2)C(=O)c2cc3ccccc3cc21 [3q] |  |  | > 250 µM
10 | Cc1cc(C)cc(C2=CC(=O)c3ccccc3C2=O)c1 [3c] |  |  | 219 ± 13.4 µM
11 | O=C1C=C(c2ccccc2)C(=O)c2c(O)cccc21 [3n] | 6.4 ± 0.5 µM | 0.69 ± 0.03 µM | 13.7 ± 1.1 µM
12 | O=C1C=C(c2ccc(C(F)(F)F)cc2)C(=O)c2ccccc21 [3g] | 6.8 ± 0.2 µM |  | 30.6 ± 2.1 µM
13 | COc1ccc(C2=CC(=O)c3ccccc3C2=O)cc1 [3e] | 34 ± 0.5 µM |  | 47.6 ± 0.6 µM
14 | COc1cccc(C2=CC(=O)c3ccccc3C2=O)c1 [3f] | 8.3 ± 1.3 µM | 3.85 ± 0.01 µM | 30.7 ± 2.5 µM
15 | Cc1cc([N+](=O)[O-])ccc1C1=CC(=O)c2ccccc2C1=O [3i] | 6.8 ± 0.6 µM |  | 39.5 ± 4.1 µM
16 | COc1cc2c(cc1OC)C(=O)C(c1ccc(C)cc1)=CC2=O [3k] |  |  | 83.3 ± 4.8 µM
17 | COC(=O)c1ccc(C2=CC(=O)c3ccccc3C2=O)cc1 [3h] | 30.6 ± 1 µM |  | 45.9 ± 4.3 µM
